Our source for the IC50 values is US20110269758A1, “NAPHTHYRIDINONES AS PROTEIN KINASE INHIBITORS” (MERCK PATENT GMBH, priority 2008, published 2011).

This experiment deals with T1, Aurora Kinase A (Homo sapiens, UniProt O14965).
T1 construct: full length Aurora A (1-403 amino acids); purchased Carna Biosciences 05-101
T1 sequence (O14965 1-403): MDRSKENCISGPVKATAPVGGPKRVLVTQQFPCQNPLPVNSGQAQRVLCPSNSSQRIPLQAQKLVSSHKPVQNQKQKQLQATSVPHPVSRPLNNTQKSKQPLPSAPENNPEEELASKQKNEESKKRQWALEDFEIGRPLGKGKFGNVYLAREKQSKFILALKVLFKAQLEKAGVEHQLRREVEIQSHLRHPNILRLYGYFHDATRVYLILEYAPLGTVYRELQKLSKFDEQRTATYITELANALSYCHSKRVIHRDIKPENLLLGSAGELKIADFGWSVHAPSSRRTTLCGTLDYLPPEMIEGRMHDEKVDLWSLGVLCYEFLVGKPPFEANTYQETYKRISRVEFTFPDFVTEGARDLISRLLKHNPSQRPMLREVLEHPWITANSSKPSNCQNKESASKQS
In words: Biochemical enzyme assay for Aurora A activity (Caliper LC3000 / Desktop Profiler mobility shift). Here is the method:
The Aurora assays described here were performed on two Caliper Life Sciences systems, the LC3000 and the Desktop Profiler. These provide data on enzyme activity via measurement of the relative amounts of phosphorylated or unphosphorylated fluorescently labelled substrate peptide at the end of an enzymatic reaction. These different states of peptide are resolved by applying a potential difference across the sample. The presence of a charged phosphate group on the product (as opposed to the substrate) causes a different peptide mobility between the two peptides. This is visualized by excitation of a fluorescent label on the substrate and product peptides and represented as peaks within the analysis software.
In order to measure inhibitor activity of Aurora A inhibitors in the Caliper Life Sciences LC3000, a TTP Mosquito liquid handling instrument was used to place 0.25 μl of an appropriate concentration of inhibitor in 100% DMSO (for a dose response curve calculation) into each well of a 384-well plate.
The reaction was incubated for 90 min at 25° C., and then stopped by the addition of 70 μl of Stop buffer (100 mM HEPES pH 7.5, 0.015% Brij-35, 10 mM EDTA (Sigma, E7889)).
The plate was read on a Caliper LC 3000 in an Off-Chip mobility shift assay format, using the following parameters for a 12-sipper chip: screening pressure −1.8 psi, upstream voltage −2700, downstream voltage −1000. These conditions cause unphosphorylated substrate and phosphorylated product peptide to resolve as separate peaks allowing direct measurement of percentage of conversion of substrate to product.
The Desktop Profiler utilizes the same prinicipal as the LC 3000 for calculating percentage conversion of a substrate to product. Caliper Life Sciences provided proprietary flash frozen pre-made 384 well plates containing selected kinases. Each column in the 384 well plate contained a particular selected kinase. A second plate, the ‘substrate plate’ contained a mix of fluorescently labeled peptide substrate and ATP. These were arranged in columns so that transfer for substrate plate to enzyme plate provided the correct enzyme with the correct substrate/ATP concentration.
Compounds were added to a thawed enzyme plate in the desired format, in single concentrations. Reactions were initiated by transfer of the substrate/ATP mix from the substrate plate. The enzyme plate was incubated for 90 mins at 25° C. The reaction was stopped by addition of 70 μl of Stop Buffer (100 mM HEPES pH 7.5, 0.015% Brij-35, 10 mM EDTA (Sigma, E7889)).
Plates were read in a manner identical to that of the LC3000, and the ratio between substrate and product peaks provided the activity of the enzyme in that well.

The mark [1] stands for this setting: GST-Aurora A, 15 μM ATP, 90 min at 25° C., LC3000 or Desktop Profiler, read-out: Aurora Kinase A IC50.

Like-named read-outs stand apart in the source and are kept apart here.

The term IC50 denotes the concentration that gives 50% inhibition. On to `Nc1ccc(NC(=O)c2cccc(C(F)(F)F)c2F)cc1` [Compound 7, N-(4-Aminophenyl)-2-fluoro-3-trifluoromethyl-benzamide], for which, under setting [1], the IC50 is 1 to 300 nM. On the same count and under the same terms, the figure for `Nc1ccc(NC(=O)c2ccc(F)cc2C(F)(F)F)cc1` [Compound 8, N-(4-Aminophenyl)-4-fluoro-2-trifluoromethyl-benzamide] is 1 to 300 nM; for `Nc1ccc(NC(=O)c2ccc(F)c(F)c2)cc1` [Compound 10, N-(4-Aminophenyl)-3,4-difluoro-benzamide] it is 301 to 600 nM. On to `Nc1ccc(NC(=O)c2cc(F)cc(F)c2)cc1` [Compound 11, N-(4-Aminophenyl)-3,5-difluoro-benzamide], for which the IC50 under setting [1] lay within 1 to 300 nM. For the molecule `Nc1ccc(NC(=O)c2ccc(F)cc2F)cc1` [Compound 12, N-(4-Aminophenyl)-2,4-difluoro-benzamide], the IC50 under setting [1] fell in the range of 1 to 300 nM.

Take `Nc1ccc(NC(=O)C2CCCCC2)cc1` [Compound 13, Cyclohexanecarboxylic acid (4-aminophenyl)-amide]: the IC50 under setting [1] lay within 1 to 300 nM.

In the case of `Nc1ccc(NC(=O)c2cc(C(F)(F)F)cc(C(F)(F)F)c2)cc1` [Compound 14, N-(4-Aminophenyl)-3,5-bis-trifluoromethyl-benzamide], the IC50 under setting [1] was in the range of 1 to 300 nM.

For the molecule `Nc1ccc(NC(=O)c2ccc3ccccc3c2)cc1` [Compound 15, Naphthalene-2-carboxylic acid (4-aminophenyl)-amide], the IC50 under setting [1] lay within 1 to 300 nM. As for `COc1ccccc1C(=O)Nc1ccc(N)cc1` [Compound 16, N-(4-Aminophenyl)-2-methoxy-benzamide], the IC50 was 1 to 300 nM. As for `Cc1ccc(C(=O)Nc2ccc(N)cc2)cc1` [Compound 17, N-(4-Aminophenyl)-4-methyl-benzamide], the IC50 under setting [1] lay within 1 to 300 nM. The same measure, in the same setting: the figure for `Nc1ccc(NC(=O)c2ccc(C(F)(F)F)cc2F)cc1` [Compound 18, N-(4-Aminophenyl)-2-fluoro-4-trifluoromethyl-benzamide] is 1 to 300 nM; for `Nc1ccc(NC(=O)c2cc(F)cc(C(F)(F)F)c2)cc1` [Compound 19, N-(4-Aminophenyl)-3-fluoro-5-trifluoromethyl-benzamide] it is 1 to 300 nM. As for `Nc1ccc(NC(=O)c2ccc(Cl)cc2)cc1` [Compound 20, N-(4-Aminophenyl)-4-chloro-benzamide], the IC50 under setting [1] fell in the range of 1 to 300 nM. Take `Nc1ccc(NC(=O)c2ccc(OC(F)(F)F)cc2)cc1` [Compound 21, N-(4-Aminophenyl)-4-trifluoromethoxy-benzamide]: the IC50 under setting [1] was 1 to 300 nM. Same read-out and setting: then `Cc1ccccc1C(=O)Nc1ccc(N)cc1` [Compound 22, N-(4-Aminophenyl)-2-methyl-benzamide], with 601 to 1000 nM; and `Cc1cccc(C(=O)Nc2ccc(N)cc2)c1` [Compound 23, N-(4-Aminophenyl)-3-methyl-benzamide], with more than 1000 nM.

As for `Nc1ccc(NC(=O)c2cccc3ccccc23)cc1` [Compound 24, Naphthalene-1-carboxylic acid (4-aminophenyl)-amide], the IC50 under setting [1] is more than 1000 nM. On the same count and under the same terms, then `Nc1ccc(NC(=O)c2c(Cl)cccc2Cl)cc1` [Compound 25, N-(4-Aminophenyl)-2,6-dichloro-benzamide], with 1 to 300 nM; and `Nc1ccc(NC(=O)c2ccc(Cl)c(Cl)c2)cc1` [Compound 26, N-(4-Aminophenyl)-3,4-dichloro-benzamide], with 1 to 300 nM. On the same count and under the same terms, then `Nc1ccc(NC(=O)c2ccc(Cl)cc2Cl)cc1` [Compound 27, N-(4-Aminophenyl)-2,4-dichloro-benzamide], with 1 to 300 nM; and `CC(C)(C)C(=O)Nc1cc(Cl)ccn1` [Compound 28, N-(4-chloropyridin-2-yl)-2,2-dimethylpropanamide], with 1 to 300 nM.

Turning to `CC(C)(C)C(=O)Nc1nccc(Cl)c1C=O` [Compound 29, N-(4-chloro-3-formylpyridin-2-yl)-2,2-dimethylpropanamide], the IC50 under setting [1] lay in the range of 301 to 600 nM.

For `CC(C)(C)OC(=O)CC(O)c1c(Cl)ccnc1NC(=O)C(C)(C)C` (centres unmarked) [Compound 30, Tert-butyl 3-{4-chloro-2-[(2,2-dimethylpropanoyl)amino]pyridin-3-yl}-3-hydroxypropanoate], the half-inhibitory concentration (IC50) under setting [1] fell in the range of 1 to 300 nM. The same measure, in the same setting: the figure for `O=c1ccc2c(Cl)ccnc2[nH]1` [Compound 31, 5-Chloro-1,8-naphthyridi-2(1H)-one] is 1 to 300 nM.

Turning to `O=c1ccc2c(Nc3c(Cl)ccc4c3OCO4)ccnc2[nH]1` [Compound 31a, 5-(5-chlorobenzo[d][1,3]dioxo-4-ylamino)-1,8-naphthyridin-2(1H)-one], the IC50 under setting [1] is 1 to 300 nM.

Take `O=C(Nc1ccc(Nc2ccnc3[nH]c(=O)ccc23)cc1)c1ccccc1` [Compound 32, N-(4-(7-oxo-7,8-dihydro-1,8-naphthyridin-4-yl-amino)phenyl)benzamide]: the IC50 under setting [1] was 1 to 300 nM. For the molecule `O=C(Nc1ccc(Nc2ccnc3[nH]c(=O)ccc23)cc1)c1ccccc1F` [Compound 34, 2-Fluoro-N-(4-(7-oxo-7,8-dihydro-1,8-naphthyridin-4-yl-amino)phenyl)benzamide], the IC50 under setting [1] fell in the range of 1 to 300 nM. Still for that read-out and setting: then `O=C(Nc1ccc(Nc2ccnc3[nH]c(=O)ccc23)cc1)c1cccc(F)c1` [Compound 35, 3-Fluoro-N-(4-(7-oxo-7,8-dihydro-1,8-naphthyridin-4-yl-amino)phenyl)benzamide], with 1 to 300 nM; and `O=C(Nc1ccc(Nc2ccnc3[nH]c(=O)ccc23)cc1)c1ccc(F)cc1` [Compound 36, 4-Fluoro-N-(4-(7-oxo-7,8-dihydro-1,8-naphthyridin-4-yl-amino)phenyl)benzamide], with 1 to 300 nM; and `O=C(Nc1ccc(Nc2ccnc3[nH]c(=O)ccc23)cc1)c1ccc(F)cc1C(F)(F)F` [Compound 40, 4-Fluoro-2-trifluoromethyl-N-(4-(7-oxo-7,8-dihydro-1,8-naphthyridin-4-yl-amino)phenyl)benzamide], with 1 to 300 nM. Take `O=C(Nc1ccc(Nc2ccnc3[nH]c(=O)ccc23)cc1)c1c(F)cccc1F` [Compound 41, 2,6-Difluoro-N-(4-(7-oxo-7,8-dihydro-1,8-naphthyridin-4-yl-amino)phenyl)benzamide]: the IC50 under setting [1] fell in the range of 1 to 300 nM.

For `O=C(Nc1ccc(Nc2ccnc3[nH]c(=O)ccc23)cc1)c1ccc(F)c(F)c1` [Compound 42, 3,4-Difluoro-N-(4-(7-oxo-7,8-dihydro-1,8-naphthyridin-4-yl-amino)phenyl)benzamide], the IC50 under setting [1] is 1 to 300 nM. Regarding `O=C(Nc1ccc(Nc2ccnc3[nH]c(=O)ccc23)cc1)c1cc(F)cc(F)c1` [Compound 43, 3,5-Difluoro-N-(4-(7-oxo-7,8-dihydro-1,8-naphthyridin-4-yl-amino)phenyl)benzamide], the IC50 under setting [1] was 1 to 300 nM. On the same count and under the same terms, then `O=C(Nc1ccc(Nc2ccnc3[nH]c(=O)ccc23)cc1)c1ccc(F)cc1F` [Compound 44, 2,4-Difluoro-N-(4-(7-oxo-7,8-dihydro-1,8-naphthyridin-4-yl-amino)phenyl)benzamide], with 301 to 600 nM; and `O=C(Nc1ccc(Nc2ccnc3[nH]c(=O)ccc23)cc1)C1CCCCC1` [Compound 45, N-(4-(7-oxo-7,8-dihydro-1,8-naphthyridin-4-yl-amino)phenyl)cyclohexanecarboxamide], with 1 to 300 nM; and `O=C(Nc1ccc(Oc2ccnc3[nH]c(=O)ccc23)cc1)c1ccccc1` [Compound 46, N-(4-(7-oxo-7,8-dihydro-1,8-naphthyridin-4-yloxy)phenyl)benzamide], with 1 to 300 nM.

In the case of `O=C(Nc1ccccc1Nc1ccnc2[nH]c(=O)ccc12)c1ccccc1` [Compound 47, N-(2-(7-oxo-7,8-dihydro-1,8-naphthyridin-4-ylamino)phenyl)benzamide], the concentration for half-maximal inhibition (IC50) under setting [1] was 1 to 300 nM. On the same count and under the same terms, then `O=C(Nc1ccccc1)c1ccc(Nc2ccnc3[nH]c(=O)ccc23)cc1` [Compound 48, 4-(7-Oxo-7,8-dihydro-1,8-naphthyridin-4-ylamino)-N-phenyl-benzamide], with more than 1000 nM.
